We go through two compounds from ChEMBL document CHEMBL2074481, “Regulation of rat multidrug resistance protein 2 by classes of prototypical microsomal enzyme inducers that activate distinct transcription pathways” (Toxicol Sci, 2002).

In this series the target is ATP-binding cassette sub-family C member 2 (Rattus norvegicus, UniProt Q63120). As to the kind of experiment: TP_TRANSPORTER: Western in vivo, liver of SD rat. The format is functional, organism-based, Sprague-Dawley.
Sequence of ATP-binding cassette sub-family C member 2 (Q63120 whole entry): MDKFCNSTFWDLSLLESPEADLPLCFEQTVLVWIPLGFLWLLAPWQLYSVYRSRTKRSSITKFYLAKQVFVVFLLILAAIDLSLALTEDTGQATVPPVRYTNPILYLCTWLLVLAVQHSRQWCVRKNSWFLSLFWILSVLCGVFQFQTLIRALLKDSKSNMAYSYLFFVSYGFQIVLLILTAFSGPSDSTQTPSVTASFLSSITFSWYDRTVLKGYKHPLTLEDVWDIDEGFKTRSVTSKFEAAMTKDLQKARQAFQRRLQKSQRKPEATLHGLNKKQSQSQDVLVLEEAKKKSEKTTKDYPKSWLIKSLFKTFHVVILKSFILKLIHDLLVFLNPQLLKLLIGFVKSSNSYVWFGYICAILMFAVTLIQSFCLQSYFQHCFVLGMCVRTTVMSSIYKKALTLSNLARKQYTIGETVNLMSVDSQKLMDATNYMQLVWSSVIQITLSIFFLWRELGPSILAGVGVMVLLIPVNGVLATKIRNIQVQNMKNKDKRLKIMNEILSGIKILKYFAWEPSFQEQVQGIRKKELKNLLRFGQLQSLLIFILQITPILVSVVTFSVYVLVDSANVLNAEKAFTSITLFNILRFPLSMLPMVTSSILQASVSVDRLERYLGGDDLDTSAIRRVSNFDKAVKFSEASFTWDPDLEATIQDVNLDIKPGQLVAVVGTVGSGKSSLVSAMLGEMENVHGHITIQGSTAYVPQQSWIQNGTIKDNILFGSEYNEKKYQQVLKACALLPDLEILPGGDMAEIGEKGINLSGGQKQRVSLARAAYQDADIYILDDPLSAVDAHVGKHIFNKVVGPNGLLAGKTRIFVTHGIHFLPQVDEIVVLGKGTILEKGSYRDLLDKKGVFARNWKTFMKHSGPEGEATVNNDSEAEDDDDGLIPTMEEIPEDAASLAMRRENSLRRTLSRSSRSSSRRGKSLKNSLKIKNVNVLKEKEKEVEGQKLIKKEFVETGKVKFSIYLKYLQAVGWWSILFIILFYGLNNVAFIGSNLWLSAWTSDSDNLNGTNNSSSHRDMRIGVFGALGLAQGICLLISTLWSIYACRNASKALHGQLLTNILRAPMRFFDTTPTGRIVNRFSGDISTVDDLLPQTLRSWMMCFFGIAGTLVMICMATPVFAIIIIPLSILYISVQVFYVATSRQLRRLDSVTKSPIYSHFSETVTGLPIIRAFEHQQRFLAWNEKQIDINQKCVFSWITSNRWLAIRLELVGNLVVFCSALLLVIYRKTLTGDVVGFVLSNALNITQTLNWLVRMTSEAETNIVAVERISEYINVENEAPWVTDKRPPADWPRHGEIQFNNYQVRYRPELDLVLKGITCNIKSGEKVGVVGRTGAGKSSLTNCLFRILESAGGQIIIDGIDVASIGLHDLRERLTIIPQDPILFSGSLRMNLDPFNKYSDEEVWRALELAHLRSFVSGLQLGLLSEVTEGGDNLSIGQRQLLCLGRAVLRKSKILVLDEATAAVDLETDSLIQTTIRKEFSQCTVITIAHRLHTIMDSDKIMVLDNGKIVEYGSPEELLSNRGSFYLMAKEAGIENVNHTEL

For `CCOc1ccc2c(c1)C(C)=CC(C)(C)N2` [E324], the Activity entry was “inducer [+]”.

On to `CC(=O)S[C@@H]1CC2=CC(=O)CC[C@]2(C)[C@H]2CC[C@@]3(C)[C@@H](CC[C@@]34CCC(=O)O4)[C@H]12` [SPIRONOLACTONE], for which the Activity result is “inducer [+]”.
